Like-named read-outs stand apart in the source and are kept apart here.
What was measured:
Mouse ASM cells = experiment: Measurement of Ca2+ sparks / local Ca2+ events in mouse ASM cells
mouse urethra = experiment: Mouse urethral contraction induced by contractile agonists; settings: pretreatment; Chloro 1 mM; CDCA 100 μM
From the text: […] were pretreated with bitter tastants, and then stimulated with contractile agonists. Contractile agonists alone were used as the control.

mouse airway strips = settings: all at 1 mM; [Ca2+]i clamped; α-toxin permeabilized
[1] = test system: human airway smooth muscle; experiment: Measurement of cell shortening in human ASM cells; type: cell-based; settings: chloroquine after Mch
Description: Human lung tissue was obtained (with informed consent) from patients undergoing surgery (lobectomy) for lung cancer at the Department of Surgery and the Department of Pathology at the Univ. of Massachusetts Memorial Med Ctr (Worcester, Mass.). The tumors were identified as nonsmall cell carcinoma (adenocarcinoma, squamous cell carcinoma). Intrapulmonary airways were dissected out and cleaned free of the connective tissues. These airways were either cut into the rings ([…]) for force measurements the same as for mouse airway tissues, or digested with the same enzymes, dissociation medium and isolation procedure as for single mouse ASM cells.
Myocytes were placed into a recording chamber superfused with the bath solution for patch clamp experiments at room temperature. Cells loaded with Fluo-3 were imaged using a custom-built wide-field digital imaging system and their lengths were determined using custom software to manually trace down the center of the cell.

L-type VDCCs = settings: chloroquine 1 mM; for inhibition of L-type Ca2+ channel currents: Ba2+ as charge carrier
[2] = test system: isolated smooth muscle cells from mouse internal anal sphincter; experiment: [Ca2+]i in isolated smooth muscle cells from mouse internal anal sphincter; type: cell-based; settings: CDCA 100 μM; chloroquine 1 mM; denatonium 1 mM
From the text: Fluorescence images using fluo-3 as a calcium indicator were obtained using a custom-built wide-field digital imaging system. The camera was interfaced to a custom made inverted microscope, and the cells were imaged using either a 20× Nikon 1.3 NA for global [Ca^2+] measurement or a 60× Nikon 1.4 NA oil for Ca^2+ spark measurement. The 488 nm line of an Argon Ion laser provided fluorescence excitation, with a shutter to control exposure duration, and emission of the Ca^2+ indicator was monitored at wavelengths >500 nm. The images were acquired at the speed of either 1 Hz for global [Ca^2+] measurement or 50 Hz for Ca^2+ spark measurement. Subsequent image processing and analysis was performed off line using a custom-designed software package, running on a Linux/PC workstation. [Ca^2+]i was represented as ΔF/F0*100 with F calculated by integrating fluo-3 over entire cells for global [Ca^2+], or just the value at the brightest pixel (i.e., epicenter pixel) for Ca^2+ sparks.

CCN(CC)CCCC(C)Nc1ccnc2cc(Cl)ccc12 (centres unmarked) [chloroquine]
Ca2+ spark frequency (Mouse ASM cells; chloroquine 10 μM for 2 mins, 13 cells without global rise, control 2.13±0.24): 1.62±0.21 Hz | Ca2+ spark amplitude (ΔF/F0 at the brightest location) (Mouse ASM cells; chloroquine 10 μM for 2 mins, n=13, control 20.6±1.69): 18.1±1.3 | local Ca2+ events (Ca2+ puffs or sparks) (Mouse ASM cells; chloroquine 10 μM, cells pretreated with 100 μM ryanodine, 14 cells): no detectable local Ca^2+ events | effect on 60 mM KCl-induced contraction (mouse urethra): blocked | effect on alpha1-agonist phenylephrine-induced contraction (mouse urethra): inhibited | relaxation of ASM at fixed [Ca2+]i (mouse airway strips): failed to relax | cell length, % of the control length [1]: 94±5% | time to full inhibition of L-type Ca2+ channel currents (L-type VDCCs): ≤ 2 min | inhibition of L-type Ca2+ channel currents (L-type VDCCs): fully inhibited | inhibition of L-type Ca2+ channel currents (L-type VDCCs; listed as Chloro): blocked | effect on the increase in [Ca2+]i induced by 60 mM KCl [2]: fully reversed

Reference: patent US20150202212A1, “METHODS FOR IDENTIFYING AGENTS FOR TREATING SMOOTH MUSCLE DISORDERS AND COMPOSITIONS THEREOF” (University of Massachusetts Medical School, priority 2012, published 2015)
